Reference: US8883963B2 (Cadila Healthcare Limited, priority 2007, dated 2014)

How the values were obtained:
[1] = Stability in simulated gastric fluid; format: in vitro ADME; details: 2 μM peptidomimetic, simulated gastric fluid pH 1.5, 37° C.; for half-life at 2 μM: read-out: half-life (t1/2) when incubated with simulated gastric fluid
Experimental: (§1) Reactions were terminated by the addition of TFA/H2O (15 mL, 10% (v/v)). […] The column was equilibrated with TFA/H20, at a flow rate of 1 mL/min.

[2] = Stability in liver microsomes; format: in vitro ADME; details: 2 μM peptidomimetic, human liver microsomes, 37° C.; for half-life at 2 μM: pH 7.8, read-out: half-life (t1/2) when incubated with liver microsomes
Experimental: as §1

DPP IV = DPP IV (Homo sapiens, UniProt P27487); test: Stability against DPP IV enzyme; format: in vitro ADME; details: 37° C.; for % degradation of peptidomimetics in 24 h when incubated with DPP-IV enzyme: 2 μM peptidomimetic; for half-life at 2 μM: DPP IV enzyme, pH 7.8, 2 μM peptidomimetic, read-out: half-life (t1/2) when incubated with DPP-IV enzyme
Chain of DPP IV (P27487 whole entry, species assumed): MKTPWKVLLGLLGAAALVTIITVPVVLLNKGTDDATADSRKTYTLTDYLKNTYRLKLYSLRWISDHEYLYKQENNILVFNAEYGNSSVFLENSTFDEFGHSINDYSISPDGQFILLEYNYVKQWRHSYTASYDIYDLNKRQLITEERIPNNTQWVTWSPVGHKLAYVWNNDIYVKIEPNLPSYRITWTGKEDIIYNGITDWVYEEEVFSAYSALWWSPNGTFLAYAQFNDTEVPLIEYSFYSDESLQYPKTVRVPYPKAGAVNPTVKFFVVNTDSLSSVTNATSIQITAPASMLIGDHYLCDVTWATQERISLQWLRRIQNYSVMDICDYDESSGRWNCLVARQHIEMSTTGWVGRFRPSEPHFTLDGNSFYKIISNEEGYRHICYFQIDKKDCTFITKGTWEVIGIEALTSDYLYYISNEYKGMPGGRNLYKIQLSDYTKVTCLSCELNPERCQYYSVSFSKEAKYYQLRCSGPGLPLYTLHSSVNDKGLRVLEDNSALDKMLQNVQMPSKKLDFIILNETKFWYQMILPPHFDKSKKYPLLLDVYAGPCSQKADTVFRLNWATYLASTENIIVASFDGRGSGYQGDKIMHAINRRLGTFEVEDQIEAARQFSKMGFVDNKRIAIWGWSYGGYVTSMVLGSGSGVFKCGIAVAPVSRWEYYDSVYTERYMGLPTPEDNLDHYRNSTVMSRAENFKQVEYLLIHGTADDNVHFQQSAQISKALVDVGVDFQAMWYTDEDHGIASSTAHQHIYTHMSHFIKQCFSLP
Experimental: as §1

Human GLP-1 receptor = target: T1, Human GLP-1 receptor (Homo sapiens, UniProt P43220); test: In vitro Human GLP-1 R agonist activity (cyclic AMP determination) in CHO/human GLP1R cells; format: cell-based
T1 construct: The full-length cDNA was cloned in pcDNA3.1(+); expressed in transfected cells
T1 sequence (P43220 24-463): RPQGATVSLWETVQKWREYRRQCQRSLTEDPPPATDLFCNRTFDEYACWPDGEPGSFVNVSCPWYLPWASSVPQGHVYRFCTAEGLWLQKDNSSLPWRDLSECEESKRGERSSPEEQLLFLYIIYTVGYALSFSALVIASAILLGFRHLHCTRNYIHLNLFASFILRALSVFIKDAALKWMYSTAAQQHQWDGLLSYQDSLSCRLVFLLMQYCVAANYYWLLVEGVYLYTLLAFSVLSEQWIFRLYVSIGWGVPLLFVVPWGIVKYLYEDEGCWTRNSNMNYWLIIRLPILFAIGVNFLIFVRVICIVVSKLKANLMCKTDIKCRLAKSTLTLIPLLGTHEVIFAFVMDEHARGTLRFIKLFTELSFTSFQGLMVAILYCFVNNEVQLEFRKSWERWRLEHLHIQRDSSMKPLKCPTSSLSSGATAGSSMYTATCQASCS
Experimental: The novel peptidomimetics were screened for Human GLP-1 receptor (HGLP-1 R) agonist activity (in vitro), using the cAMP cell-based assay, in stably transfected CHO/human GLP1R cells. […] CHO cells were grown in Ham's F12 medium containing L-Glutamine (2 mM), HEPES (25 mM), NaHCO3 (1.1 g/L) and supplemented with NewBorn Calf Serum (NBCS; 10%), Penicillin (50 U/ml (v/v)) and Streptomycin (50 ug/ml (v/v)). Cells were split every 3 days 1:8.
The cDNA encoding the human GLP-1 receptor was isolated by RT-PCR according to standard protocol. The full-length cDNA was cloned in pcDNA3.1(+). […] Clones expressing the receptor were generated by G418 (800 μg/ml active, Sigma) selection. The stable clones were thereafter maintained at 500 ug/ml (G418). The selected clone was used between passages 9-25 for cAMP assays.
The trypsin was inactivated using Ham's F12 medium containing 10% NBCS and the cells were suspended in 2 ml of complete medium. […] The medium was aspirated off from the 12 well plate and the cells were washed once using Ham's F12 (plain). […] The cells were incubated with the test compounds for 30 min in humidified atmosphere and 37° C. After the incubation, the medium was removed and cells were washed once with plain Ham's F12. Subsequently, the cells were lysed by adding 500 ul of ice cold 0.1 N HCl to each well and shaking for 30 minutes at 200 rpm. The cells were then scrapped, the lysate was collected in micro centrifuge tubes and centrifuged at 12000 rpm for 10 min to remove the debris. 300 ul of supernatant from each micro-centrifuge tube was then removed into a glass tube and dried under N2 for 30 min, for cAMP estimation. The total cAMP was estimated from the sample according to the manufacturer's protocol using Cyclic AMP immunoassay kit (R&D systems, Minneapolis. MN). The remaining supernatant is used to determine the protein concentration using micro BCA (Sigma). Data is calculated as percent of control (Vehicle: water) and expressed as Mean±SD.

[3] = Stability in human plasma; format: in vitro ADME; details: 2 μM peptidomimetic, pooled human plasma, 37° C.; for half-life at 2 μM: pH 7.8, read-out: half-life (t1/2) when incubated with human plasma
Experimental: as §1

[4] = Stability in simulated intestinal fluid; format: in vitro ADME; details: 2 μM peptidomimetic, simulated intestinal fluid pH 7.5, 37° C.; for half-life at 2 μM: read-out: half-life (t1/2) when incubated with simulated intestinal fluid
Experimental: as §1

## CCc1cc(OC)ccc1-c1ccc(CC(NC(=O)[C@H](CC(=O)O)NC(=O)[C@H](CO)NC(=O)[C@@H](NC(=O)[C@H](Cc2ccccc2)NC(=O)[C@@H](NC(=O)CNC(=O)[C@H](CCC(N)=O)NC(=O)[C@H](C)NC(=O)[C@@H](N)Cc2c[nH]cn2)[C@@H](C)O)[C@@H](C)O)C(=O)NC(CCCc2ccc(Cl)cc2C)C(N)=O)cc1 (single isomer, unassigned) [compound 16]
[1]
  half-life (t1/2) when incubated with simulated gastric fluid: (8) h
  % degradation of peptidomimetics in 24 h when incubated with simulated gastric fluid: 14%
[2]
  % degradation of peptidomimetics in 24 h when incubated with liver microsomes: 78%
  half-life at 2 μM: 1 h
DPP IV
  % degradation of peptidomimetics in 24 h when incubated with DPP-IV enzyme: 70%
  half-life at 2 μM: 9 h
Human GLP-1 receptor; 1 nM test compound
  Human GLP-1 R activity (cAMP release), % activity with respect to control: 99 ± 0.11%
Human GLP-1 receptor; 10 nM test compound
  Human GLP-1 R activity (cAMP release), % activity with respect to control: 99 ± 0.13%
Human GLP-1 receptor; 100 nM test compound
  Human GLP-1 R activity (cAMP release), % activity with respect to control: 99 ± 0.16%
Human GLP-1 receptor; 1 μM test compound
  Human GLP-1 R activity (cAMP release), % activity with respect to control: 99 ± 0.06%
Human GLP-1 receptor; 10 μM test compound
  Human GLP-1 R activity (cAMP release), % activity with respect to control: 99 ± 0.10%
[3]
  % degradation of peptidomimetics in 24 h when incubated with human plasma: 71%
  half-life at 2 μM: 8 h
[4]
  half-life (t1/2) when incubated with simulated intestinal fluid: (6) h
  % degradation of peptidomimetics in 24 h when incubated with simulated intestinal fluid: 40%

## CCc1cc(OC)ccc1-c1ccc(CC(NC(=O)[C@H](CC(=O)O)NC(=O)[C@H](CO)NC(=O)[C@@H](NC(=O)[C@H](Cc2ccccc2)NC(=O)[C@@H](NC(=O)CNC(=O)[C@H](CCC(N)=O)NC(=O)C(C)(C)NC(=O)[C@@H](N)Cc2c[nH]cn2)[C@@H](C)O)[C@@H](C)O)C(=O)NC(CCCc2ccc(OC)cc2Cl)C(N)=O)cc1 (single isomer, unassigned) [compound 68]
[1]
  half-life (t1/2) when incubated with simulated gastric fluid: (8) h
  % degradation of peptidomimetics in 24 h when incubated with simulated gastric fluid: 12%
[2]
  % degradation of peptidomimetics in 24 h when incubated with liver microsomes: 83%
  half-life at 2 μM: 1 h
DPP IV
  % degradation of peptidomimetics in 24 h when incubated with DPP-IV enzyme: 74%
  half-life at 2 μM: 9 h
Human GLP-1 receptor; 1 nM test compound
  Human GLP-1 R activity (cAMP release), % activity with respect to control: 39 ± 0.11%
Human GLP-1 receptor; 10 nM test compound
  Human GLP-1 R activity (cAMP release), % activity with respect to control: 80 ± 0.09%
Human GLP-1 receptor; 100 nM test compound
  Human GLP-1 R activity (cAMP release), % activity with respect to control: 88 ± 0.06%
Human GLP-1 receptor; 1 μM test compound
  Human GLP-1 R activity (cAMP release), % activity with respect to control: 96 ± 0.14%
Human GLP-1 receptor; 10 μM test compound
  Human GLP-1 R activity (cAMP release), % activity with respect to control: 99 ± 0.19%
[3]
  % degradation of peptidomimetics in 24 h when incubated with human plasma: 75%
  half-life at 2 μM: 8 h
[4]
  half-life (t1/2) when incubated with simulated intestinal fluid: (6) h
  % degradation of peptidomimetics in 24 h when incubated with simulated intestinal fluid: 46%

## CCc1cc(OC)ccc1-c1ccc(CC(NC(=S)[C@H](CC(=O)O)NC(=O)[C@H](CO)NC(=O)[C@@H](NC(=O)C(C)(Cc2ccccc2F)NC(=O)[C@@H](NC(=O)CNC(=O)C(CCC#N)NC(=O)C(C)(C)NC(=O)[C@@H](N)Cc2c[nH]cn2)[C@H](C)O)[C@H](C)O)C(=S)NC(CCCc2ccccc2F)C(N)=O)cc1 (single isomer, unassigned) [compound 180]
[1]
  % degradation of peptidomimetics in 24 h when incubated with simulated gastric fluid: 50%
  half-life at 2 μM: 4 h
[2]
  % degradation of peptidomimetics in 24 h when incubated with liver microsomes: 86%
  half-life at 2 μM: 2 h
DPP IV
  % degradation of peptidomimetics in 24 h when incubated with DPP-IV enzyme: 00%
  half-life at 2 μM: > 24 h
Human GLP-1 receptor; 1 nM test compound
  Human GLP-1 R activity (cAMP release), % activity with respect to control: 40 ± 0.11%
Human GLP-1 receptor; 10 nM test compound
  Human GLP-1 R activity (cAMP release), % activity with respect to control: 81 ± 0.09%
Human GLP-1 receptor; 100 nM test compound
  Human GLP-1 R activity (cAMP release), % activity with respect to control: 89 ± 0.06%
Human GLP-1 receptor; 1 μM test compound
  Human GLP-1 R activity (cAMP release), % activity with respect to control: 96 ± 0.14%
Human GLP-1 receptor; 10 μM test compound
  Human GLP-1 R activity (cAMP release), % activity with respect to control: 99 ± 0.19%
[3]
  % degradation of peptidomimetics in 24 h when incubated with human plasma: 00%
  half-life at 2 μM: > 24 h
[4]
  % degradation of peptidomimetics in 24 h when incubated with simulated intestinal fluid: 00%
  half-life at 2 μM: > 24 h

## CCc1cc(OC)ccc1-c1ccc(CC(CNC(CCCc2ccccc2)C(N)=O)NC(=O)[C@H](CC(=O)O)NC(=O)[C@H](CO)NC(=O)[C@@H](NC(=O)C(C)(Cc2ccccc2F)NC(=O)[C@@H](NC(=O)CNC(=O)[C@H](CCC(N)=O)NC(=O)C(C)(C)NC(=O)[C@H](Cc2c[nH]cn2)NC(C)=O)[C@H](C)O)[C@H](C)O)cc1 (single isomer, unassigned) [compound 185]
[1]
  % degradation of peptidomimetics in 24 h when incubated with simulated gastric fluid: 55%
  half-life at 2 μM: 4 h
[2]
  % degradation of peptidomimetics in 24 h when incubated with liver microsomes: 84%
  half-life at 2 μM: 2 h
DPP IV
  % degradation of peptidomimetics in 24 h when incubated with DPP-IV enzyme: 00%
  half-life at 2 μM: > 24 h
Human GLP-1 receptor; 1 nM test compound
  Human GLP-1 R activity (cAMP release), % activity with respect to control: 46 ± 0.022%
Human GLP-1 receptor; 10 nM test compound
  Human GLP-1 R activity (cAMP release), % activity with respect to control: 85 ± 0.46%
Human GLP-1 receptor; 100 nM test compound
  Human GLP-1 R activity (cAMP release), % activity with respect to control: 90 ± 0.41%
Human GLP-1 receptor; 1 μM test compound
  Human GLP-1 R activity (cAMP release), % activity with respect to control: 99 ± 0.66%
Human GLP-1 receptor; 10 μM test compound
  Human GLP-1 R activity (cAMP release), % activity with respect to control: 99 ± 0.03%
[3]
  % degradation of peptidomimetics in 24 h when incubated with human plasma: 00%
  half-life at 2 μM: > 24 h
[4]
  % degradation of peptidomimetics in 24 h when incubated with simulated intestinal fluid: 00%
  half-life at 2 μM: > 24 h

## CCc1cc(OC)ccc1-c1ccc(CC(CNC(CCCc2ccccc2)C(N)=O)NC(=O)[C@H](CC(=O)O)NC(=O)[C@H](CO)NC(=O)[C@@H](NC(=O)C(C)(Cc2ccccc2F)NC(=O)[C@@H](NC(=O)CNC(=O)C(CCC#N)NC(=O)C(C)(C)NC(=O)[C@@H](N)Cc2c[nH]cn2)[C@H](C)O)[C@H](C)O)cc1 (single isomer, unassigned) [compound 190]
[1]
  % degradation of peptidomimetics in 24 h when incubated with simulated gastric fluid: 45%
  half-life at 2 μM: 4 h
[2]
  % degradation of peptidomimetics in 24 h when incubated with liver microsomes: 85%
  half-life at 2 μM: 2 h
DPP IV
  % degradation of peptidomimetics in 24 h when incubated with DPP-IV enzyme: 00%
  half-life at 2 μM: > 24 h
Human GLP-1 receptor; 1 nM test compound
  Human GLP-1 R activity (cAMP release), % activity with respect to control: 41 ± 0.09%
Human GLP-1 receptor; 10 nM test compound
  Human GLP-1 R activity (cAMP release), % activity with respect to control: 82 ± 0.07%
Human GLP-1 receptor; 100 nM test compound
  Human GLP-1 R activity (cAMP release), % activity with respect to control: 87 ± 0.04%
Human GLP-1 receptor; 1 μM test compound
  Human GLP-1 R activity (cAMP release), % activity with respect to control: 95 ± 0.01%
Human GLP-1 receptor; 10 μM test compound
  Human GLP-1 R activity (cAMP release), % activity with respect to control: 98 ± 0.08%
[3]
  % degradation of peptidomimetics in 24 h when incubated with human plasma: 00%
  half-life at 2 μM: > 24 h
[4]
  % degradation of peptidomimetics in 24 h when incubated with simulated intestinal fluid: 00%
  half-life at 2 μM: > 24 h

## CCc1cc(OC)ccc1-c1ccc(CC(CNC(CCCc2ccccc2)C(N)=O)NC[C@H](CC(=O)O)NC(=O)[C@H](CO)NC(=O)[C@@H](NC(=O)C(C)(Cc2ccccc2F)NC(=O)[C@@H](NC(=O)CNC(=O)[C@H](CCC(N)=O)NC(=O)C(C)(C)NC(=O)[C@H](Cc2c[nH]cn2)NC(=O)OC)[C@H](C)O)[C@H](C)O)cc1 (single isomer, unassigned) [compound 198]
[1]
  % degradation of peptidomimetics in 24 h when incubated with simulated gastric fluid: 49%
  half-life at 2 μM: 4 h
[2]
  % degradation of peptidomimetics in 24 h when incubated with liver microsomes: 82%
  half-life at 2 μM: 2 h
DPP IV
  % degradation of peptidomimetics in 24 h when incubated with DPP-IV enzyme: 00%
  half-life at 2 μM: > 24 h
Human GLP-1 receptor; 1 nM test compound
  Human GLP-1 R activity (cAMP release), % activity with respect to control: 82 ± 0.22%
Human GLP-1 receptor; 10 nM test compound
  Human GLP-1 R activity (cAMP release), % activity with respect to control: 87 ± 0.12%
Human GLP-1 receptor; 100 nM test compound
  Human GLP-1 R activity (cAMP release), % activity with respect to control: 92 ± 0.14%
Human GLP-1 receptor; 1 μM test compound
  Human GLP-1 R activity (cAMP release), % activity with respect to control: 99 ± 0.22%
Human GLP-1 receptor; 10 μM test compound
  Human GLP-1 R activity (cAMP release), % activity with respect to control: 99 ± 0.26%
[3]
  % degradation of peptidomimetics in 24 h when incubated with human plasma: 00%
  half-life at 2 μM: > 24 h
[4]
  % degradation of peptidomimetics in 24 h when incubated with simulated intestinal fluid: 00%
  half-life at 2 μM: > 24 h
